Measurements: patent US20230009608A1, “GRK2 INHIBITORS AND USES THEREOF” (Cygnal Therapeutics, Inc., priority 2020, published 2023)
Read-outs that look alike come from different tables or passages of the source.

What was measured:
[1] = system: PAXF1657 control empty vector cell line; experiment: 7-day proliferation assay, PAXF1657 control empty vector cell line (Example 9); type: cell-based; settings: 168 h; Cell Line: PAXF1657 empty vector (EV) cell line; 7-day; read-out: C: 7-day proliferation assay: IC50 GeoMean
Summary of the method: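 PAXF1657 isogenic lines (GRK2-overexpressing vs empty vector; CRISPR GRK2 knockout vs non-targeting control clones) seeded 500 cells/well in RPMI1640/10% FBS and treated next day with 10-point dilutions, 30 μM-0.0002 μM final, 0.3% DMSO. Media with compound refreshed after 3 days; viability read by CellTiter-Glo luminescence at day 7.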

GRK2 = biological target: T1, GRK2 (Homo sapiens, UniProt P25098); experiment: ADPGlo GRK2 Inhibition Assay (Example 8); type: biochemical; settings: read-out: A: Enzymatic GRK2: IC50 (nM) (Example 8)
T1 construct: purchased SignalChem A14-10G
T1 sequence (P25098 1-689): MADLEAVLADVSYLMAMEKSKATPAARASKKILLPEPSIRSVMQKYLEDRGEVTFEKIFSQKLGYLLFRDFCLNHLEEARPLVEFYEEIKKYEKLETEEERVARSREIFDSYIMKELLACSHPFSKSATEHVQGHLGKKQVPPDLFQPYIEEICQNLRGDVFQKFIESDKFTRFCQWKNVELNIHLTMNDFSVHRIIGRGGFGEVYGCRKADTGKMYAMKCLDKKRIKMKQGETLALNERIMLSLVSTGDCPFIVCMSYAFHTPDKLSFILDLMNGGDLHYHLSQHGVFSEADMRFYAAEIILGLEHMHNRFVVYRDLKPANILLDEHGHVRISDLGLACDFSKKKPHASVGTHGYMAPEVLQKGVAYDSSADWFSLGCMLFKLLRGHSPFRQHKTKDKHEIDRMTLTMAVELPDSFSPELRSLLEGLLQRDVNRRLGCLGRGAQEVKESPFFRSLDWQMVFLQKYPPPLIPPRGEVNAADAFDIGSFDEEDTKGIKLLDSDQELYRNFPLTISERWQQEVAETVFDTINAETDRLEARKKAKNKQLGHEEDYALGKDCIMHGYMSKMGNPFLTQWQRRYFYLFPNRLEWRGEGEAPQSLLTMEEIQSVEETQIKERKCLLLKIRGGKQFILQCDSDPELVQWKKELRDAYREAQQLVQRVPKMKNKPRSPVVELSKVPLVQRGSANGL
Summary of the method: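 GRK2 (15 nM 2× enzyme solution) was preincubated 15 min with compound, then reacted 180 min at room temperature with 2× mix of 20 μM ATP plus GRKtide in HEPES pH 7.5, MgCl2, Tween-20, DTT. ADP was detected by ADP-Glo luminescence. Percent inhibition was normalised to enzyme and no-enzyme controls, with dose-response curves from threefold dilutions starting at 100 μM.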

[2] = Enzyme Assay A, ADPGlo (Example 8)

Compound	IC50 [1] [nM]	IC50 (GRK2; ADPGlo GRK2 enzyme assay) [nM]	IC50 (GRK2; [2]) [nM]
Cc1ccc(C(C)NC(=O)c2cccc(NCc3nnc(-c4ccncn4)n3C)c2)nc1 (stereo not drawn)	> 5020	74	–
COc1cccnc1CNC(=O)c1cccc(NCc2nnc(-c3ccncn3)n2C)c1	> 10000	–	290
Cn1c(CNc2cccc(C(=O)NCc3ccccc3Cn3cncn3)c2)nnc1-c1ccncn1	7410	55.7	–
C[C@H](NC(=O)c1cccc(NCc2nnc(-c3ccncn3)n2C)c1)c1ccncc1	771	–	45
O=C(NCc1nccn1C(F)F)c1cccc(NCc2nnc(-c3ccncc3)[nH]2)c1	2880	–	14
CC(NC(=O)c1cccc(NCc2nnc(-c3ccncn3)n2C)c1)c1ccc2c(c1)CC(=O)N2C (stereo not drawn)	158	–	21
CC(NC(=O)c1cccc(NCc2nnc(-c3ccncn3)n2C)c1)c1ccncc1 (stereo not drawn)	2150	–	11
CNS(=O)(=O)c1cccc(F)c1CNC(=O)c1cccc(NCc2nnc(-c3ccncc3F)n2C)c1	2700	–	33.9
Cn1c(CNc2cccc(C(=O)NCC3COc4ccccc43)c2)nnc1-c1ccncn1 (stereo not drawn)	> 5210	54.7	–
COc1cccc(CNC(=O)c2cccc(NCc3nnc(-c4ccncn4)n3C)c2)c1	> 30000	–	22
Cn1c(CNc2cccc(C(=O)NCc3cnn4c3CCCC4)c2)nnc1-c1ccncn1	> 24800	71.6	–
COc1ncc(Br)cc1CNC(=O)c1cccc(NCc2nnc(-c3ccncc3)[nH]2)c1	21700	10.2	–
COc1cccc([C@@H](C)NC(=O)c2cccc(NCc3nnc(-c4ccncc4)n3CCO)c2)c1	> 30000	99.4	–
Cc1cnc(C(C)NC(=O)c2cccc(NCc3nnc(-c4ccncc4)[nH]3)c2)o1 (stereo not drawn)	> 10000	–	16
Cn1ccnc1C(NC(=O)c1cccc(NCc2nnc(-c3ccncn3)n2C)c1)C1CC1 (stereo not drawn)	3750	52.9	–
[2H]C([2H])(Nc1cccc(C(=O)N[C@@H]2COc3ccccc32)c1)c1nnc(-c2ccncn2)n1CCO	96	3.76	–
Cc1cccc2ncc(CNC(=O)c3cccc(NCc4nnc(-c5ccncc5F)n4C)c3)n12	> 1360	3.91	–
CCc1nc(CNC(=O)c2cccc(NCc3nnc(-c4ccncc4)[nH]3)c2)c(C)o1	866	–	8.4
O=C(N[C@@H]1COc2cc(F)ccc21)c1cccc(NCc2nnc(-c3ccncn3)n2CCO)c1	25.4	–	22.4
O=C(N[C@@H]1COCc2ccccc21)c1cccc(NCc2nnc(-c3ccncc3)n2CCO)c1	> 30000	–	9.28
COc1ccc2c(c1)[C@H](NC(=O)c1cccc(NCc3nnc(-c4ccncn4)n3C)c1)CCO2	> 30000	–	15.2

Compound	IC50 [1] [nM]	IC50 (GRK2; ADPGlo GRK2 enzyme assay) [nM]	IC50 (GRK2; [2]) [nM]
Cn1ccnc1C(NC(=O)c1cccc(NCc2nnc(-c3ccncc3)[nH]2)c1)C1CC1 (stereo not drawn) [drawing 485]	5510	–	10
Cn1c(CNc2cccc(C(=O)NCc3cccc4cccnc34)c2)nnc1-c1ccncn1 [drawing 359]	3640	–	61
CC(NC(=O)c1cccc(NCc2nnc(-c3ccncc3)[nH]2)c1)c1ccon1 (stereo not drawn)	> 10000	–	20
Cn1c(CNc2cccc(C(=O)NCc3ccc4c(c3)CCO4)c2)nnc1-c1ccncn1	1670	–	16
Cc1ncccc1CNC(=O)c1cccc(NCc2nnc(-c3ccncc3)[nH]2)c1	> 10000	–	19
Cc1ccn2c(CNC(=O)c3cccc(NCc4nnc(-c5ccncn5)n4C)c3)nnc2c1	> 30000	–	14
CCn1cnnc1CNC(=O)c1cccc(NCc2nnc(-c3ccncn3)n2C)c1	> 10000	–	72
CCCn1c(CNc2cccc(C(=O)N[C@@H](C)c3cccc(OC)c3)c2)nnc1-c1ccncn1	> 30000	14.1	–
COc1cccc([C@H](C)NC(=O)c2cccc(NCc3nnc(-c4ccncc4)[nH]3)c2)c1	> 30000	17.5	–
Cn1c(CNc2cccc(C(=O)NCc3ncccc3Cl)c2)nnc1-c1ccncn1	> 16400	48.2	–
C#Cc1ccc(CNC(=O)c2cccc(NCc3nnc(-c4ccncn4)n3C)c2)c(F)c1	413	12	–
Cn1c(CNc2cccc(C(=O)N[C@H](CCO)c3ccccc3)c2)nnc1-c1ccncn1	4190	–	9.54
CC(NC(=O)c1cccc(NCc2nnc(-c3ccncn3)n2C)c1)c1ncccc1F (stereo not drawn)	2660	69	–
Cn1c(CNc2cccc(C(=O)NCc3ccc(C(F)F)cc3)c2)nnc1-c1ccncn1	> 13100	64.2	–
Cn1c(CNc2cccc(C(=O)NCc3c(F)cccc3NS(C)(=O)=O)c2)nnc1-c1ccncn1	3250	9.42	–
COc1cc(F)cc(CNC(=O)c2cccc(NCc3nnc(-c4ccncn4)n3C)c2)c1	> 10000	–	54
Cc1ccnc(CNC(=O)c2cccc(NCc3nnc(-c4ccncn4)n3C)c2)c1	> 10000	–	430
CC(NC(=O)c1cccc(NCc2nnc(-c3ccncn3)n2C)c1)c1ncnn1C (stereo not drawn)	> 10000	–	230
Cn1c(CNc2cccc(C(=O)NCc3cocn3)c2)nnc1-c1ccncn1	> 30000	–	27
CCCn1c(CNc2cccc(C(=O)N[C@H](C)c3cccc(OC)c3)c2)nnc1-c1ccncn1	> 219	40.1	–
CCCn1c(CNc2cccc(C(=O)N[C@@H]3COc4cc(F)ccc43)c2)nnc1-c1ccncn1	> 30000	–	3.35

Compound	IC50 [1] [nM]	IC50 (GRK2; ADPGlo GRK2 enzyme assay) [nM]	IC50 (GRK2; [2]) [nM]
Cc1ccccc1[C@@H](C#N)NC(=O)c1cccc(NCc2nnc(-c3ccncn3)n2C)c1	35.5	4.97	–
Cc1ncncc1[C@@H](C)NC(=O)c1cccc(NCc2nnc(-c3ccncn3)n2C)c1	> 30000	15.5	–
CNS(=O)(=O)c1cccc(F)c1CNC(=O)c1cccc(NCc2nnc3n2CCOc2cnccc2-3)c1	2840	–	85.3
O=C(NC(CO)c1ccccn1)c1cccc(NCc2nnc(-c3ccncc3)[nH]2)c1 (stereo not drawn)	> 10000	–	20
Cn1c(CNc2cccc(C(=O)NCc3ncnn3-c3ccccc3)c2)nnc1-c1ccncn1	> 10000	–	59
Cn1c(CNc2cccc(C(=O)N[C@@H]3CCOc4ccccc43)c2)nnc1-c1ccncn1	227	23	–
Cc1cc(CO)cc(C)c1CNC(=O)c1cccc(NCc2nnc(-c3ccncn3)n2C)c1	738	10.8	–
COc1ccc(CNC(=O)c2cccc(NCc3nnc(-c4ccncn4)n3C)c2)c(C)n1	> 30000	28.5	–
C[C@@H](NC(=O)c1cccc(NCc2nnc(-c3ccncc3)n2C)c1)c1ncccc1Cl	> 4780	11.4	–
Cn1c(CNc2cccc(C(=O)N[C@H](CCO)c3ccccc3)c2)nnc1-c1ccncc1F	> 30000	18	–
CN(C)S(=O)(=O)c1ccccc1CNC(=O)c1cccc(NCc2nnc(-c3ccncn3)n2C)c1	21500	47.2	–
Cn1c(CNc2cccc(C(=O)NCc3c(F)cccc3-n3cccn3)c2)nnc1-c1ccncn1	> 10000	–	24
C[C@H](NC(=O)c1cccc(NCc2nnc(-c3ccncn3)n2C)c1)c1cncs1	> 10000	–	410
Cc1nncc(CNC(=O)c2cccc(NCc3nnc(-c4ccncn4)n3C)c2)c1C	1460	14.3	–
Cc1nn(C)c(C)c1CNC(=O)c1cccc(NCc2nnc(-c3ccncn3)n2C)c1	> 10000	–	26
COc1cccc2c1OCC[C@H]2NC(=O)c1cccc(NCc2nnc(-c3ccncn3)n2C)c1	7740	–	26.1
Cn1c(CNc2cccc(C(=O)NCc3ccccc3)c2)nnc1-c1ccncn1	> 10000	–	20
Cn1c(CNc2cccc(C(=O)N[C@H](C#N)c3cccnc3)c2)nnc1-c1ccncn1	3430	20.3	–
Cn1c(CNc2cccc(C(=O)NCc3cnc4ccccn34)c2)nnc1-c1ccncc1F	> 30000	39	–
Cc1ccc2c(c1)OCC[C@H]2NC(=O)c1cccc(NCc2nnc(-c3ccncn3)n2C)c1	648	–	9.99
CCOc1cccc(CNC(=O)c2cccc(NCc3nnc(-c4ccncn4)n3C)c2)c1	> 30000	73.6	–
